According to patent US10092575B2, “Substituted thiophene- and furan-fused azolopyrimidine-5-(6H)-one compounds” (DART NEUROSCIENCE (CAYMAN) LTD., priority 2012, dated 2018):

These molecules were tested against human PDE1b enzyme (Homo sapiens (Human), UniProt Q01064) (assay: PDE1b inhibitory assay (IMAP TR-FRET)). Conditions: not given.

Row | SMILES | EC50 [µM]
1 | O=c1n(Cc2ccc(F)cc2)c2sc3c(c2c2ncnn12)CCOC3 [Example 92, 6-(4-Fluorobenzyl)-6,8,10,11-tetrahydro-5H-pyrano[4′,3′:4,5]thieno[3,2-e][1,2,4]triazolo[1,5-c]pyrimidin-5-one] | 1 to 10
2 | O=c1n(Cc2ccccc2)c2sc(Cc3ccccc3)cc2c2ncnn12 [Example 17, 6,8-Dibenzylthieno[3,2-e][1,2,4]triazolo[1,5-c]pyrimidin-5(6H)-one] | 0.1 to 1
3 | O=c1n(Cc2ccc(Cl)cc2)c2sc3c(c2c2ncnn12)CCN(CC(F)(F)F)C3 [Example 107, 6-(4-Chlorobenzyl)-9-(2,2,2-trifluoroethyl)-8,9,10,11-tetrahydropyrido[4′,3′:4,5]thieno[3,2-e][1,2,4]triazolo[1,5-c]pyrimidin-5 (6H)-one] | 0.1 to 1
4 | Cc1sc2c(c1C)c1ncnn1c(=O)n2Cc1ccc(Cl)cc1 [Example 26, 6-(4-Chlorobenzyl)-8,9-dimethylthieno[3,2-e][1,2,4]triazolo[1,5-c]pyrimidin-5(6H)-one] | 0.1 to 1
5 | COc1ccc(Cn2c(=O)n3ncnc3c3cc(CN4CCC(Oc5ccncc5)CC4)sc32)cc1 [Example 185, 6-(4-Methoxybenzyl)-8-((4-(pyridin-4-yloxy)piperidin-1-yl)methyl)thieno[3,2-e][1,2,4]triazolo[1,5-c]pyrimidin-5(6H)-one] | 0.1 to 1
6 | COc1ccc(Cn2c(=O)n3ncnc3c3c4c(sc32)CN(C(C)C(F)F)CC4)cc1 (centres unmarked) [Example 151, 9-(1,1-Difluoropropan-2-yl)-6-(4-methoxybenzyl)-8,9,10,11-tetrahydropyrido[4′,3′:4,5]thieno[3,2-e][1,2,4]triazolo[1,5-c]pyrimidin-5(6H)-one] | 0.1 to 1
7 | COc1ccc(Cn2c(=O)n3ncnc3c3cc(CNCC4(C)COC4)sc32)cc1 [Example 211] | 0.1 to 1
8 | COc1ccc(Cn2c(=O)n3ncnc3c3cc(CN(C)CC4(C)COC4)sc32)c(F)c1F [Example 210, 6-(2,3-Difluoro-4-methoxybenzyl)-8-((methyl((3-methyloxetan-3-yl)methyl)amino)methyl)thieno[3,2-e][1,2,4]triazolo[1,5-c]pyrimidin-5(6H)-one] | 0.1 to 1
9 | COc1ccc(Cn2c(=O)n3ncnc3c3c4c(sc32)CN(C2CS(=O)(=O)C2)CC4)cc1 [Example 124, 9-(1,1-Dioxidothietan-3-yl)-6-(4-methoxybenzyl)-8,9,10,11-tetrahydropyrido[4′,3′:4,5]thieno[3,2-e][1,2,4]triazolo[1,5-c]pyrimidin-5 (6H)-one] | 0.1 to 1
10 | COc1ccc(Cn2c(=O)n3ncnc3c3c(CN4CCCC(CO)(CC(C)C)C4)csc32)cc1 (centres unmarked) [Example 195, 9-((3-(Hydroxymethyl)-3-isobutylpiperidin-1-yl)methyl)-6-(4-methoxybenzyl)thieno[3,2-e][1,2,4]triazolo[1,5-c]pyrimidin-5(6H)-one] | 0.1 to 1
11 | Cc1cc2c(s1)n(Cc1cccc(Cl)c1)c(=O)n1ncnc21 [Example 16, 6-(3-Chlorobenzyl)-8-methylthieno[3,2-e][1,2,4]triazolo[1,5-c]pyrimidin-5(6H)-one] | 1 to 10
12 | COc1ccc(Cn2c(=O)n3ncnc3c3c4c(sc32)N(C(=O)c2ccccc2)CCC4)cc1OC [Example 176, 8-Benzoyl-6-(3,4-dimethoxybenzyl)-8,9,10,11-tetrahydropyrido[3′,2′:4,5]thieno[3,2-e][1,2,4]triazolo[1,5-c]pyrimidin-5(6H)-one] | 1 to 10
13 | Cc1cc2c(s1)n(Cc1ccccc1)c(=O)n1ncnc21 [Example 12, 6-Benzyl-8-methylthieno[3,2-e][1,2,4]triazolo[1,5-c]pyrimidin-5(6H)-one] | 1 to 10
14 | COc1ccc(Cn2c(=O)n3nccc3c3cc(CN4C[C@@H](C)O[C@@H](C)C4)sc32)cc1 [Example 104, 2-(((2S,6R)-2,6-Dimethylmorpholino)methyl)-4-(4-methoxybenzyl)pyrazolo[1,5-c]thieno[3,2-e]pyrimidin-5(4H)-one] | 0.1 to 1

Same assay, conditions: negative log of half-maximal molar inhibitory concentration; 200 nM FAM-cAMP; reported as ranges

Row | SMILES | PDE1b (pEC50)
15 | COc1ccc(Cn2c(=O)n3ncnc3c3c4c(sc32)CN(c2ccccn2)CC4)cc1 [Example 179, 6-(4-Methoxybenzyl)-9-(pyridin-2-yl)-8,9,10,11-tetrahydropyrido[4′,3′:4,5]thieno[3,2-e][1,2,4]triazolo[1,5-c]pyrimidin-5(6H)-one] | >7
16 | COc1ccc(Cn2c(=O)n3ncnc3c3c(C)c(CN4CCNC(=O)C4)sc32)cc1 [Example 53, 6-(4-Methoxybenzyl)-9-methyl-8-((3-oxopiperazin-1-yl)methyl)thieno[3,2-e][1,2,4]triazolo[1,5-c]pyrimidin-5(6H)-one] | >7
17 | COc1ccc(Cn2c(=O)n3ncnc3c3c4c(sc32)CN(Cc2ncccn2)CCC4)cc1 [Example 145, 6-(4-Methoxybenzyl)-9-(pyrimidin-2-ylmethyl)-6,8,9,10,11,12-hexahydro-5H-[1,2,4]triazolo[1″,5″:1′,6]pyrimido[5′,4′:4,5]thieno[2,3-c]azepin-5-one] | >7
18 | COc1ccc(Cn2c(=O)n3ncnc3c3c4c(sc32)CN(CCCSC)CC4)cc1 [Example 112, 6-(4-Methoxybenzyl)-9-(3-(methylthio)propyl)-8,9,10,11-tetrahydropyrido[4′,3′:4,5]thieno[3,2-e][1,2,4]triazolo[1,5-c]pyrimidin-5(6H)-one] | >7
19 | Cn1ccnc1CN1CCc2c(sc3c2c2ncnn2c(=O)n3Cc2ccc(Cl)cc2F)C1 [Example 131] | >7
20 | COc1ccc(Cn2c(=O)n3ncnc3c3c(C)c(CN4CCOCC4C)sc32)cc1 (centres unmarked) [Example 71, 6-(4-Methoxybenzyl)-9-methyl-8-((3-methylmorpholino)methyl)thieno[3,2-e][1,2,4]triazolo[1,5-c]pyrimidin-5(6H)-one] | >7
21 | CCC1CN(Cc2sc3c(c2C)c2ncnn2c(=O)n3Cc2ccc(OC)cc2)CCO1 (centres unmarked) [Example 68, 8-((2-Ethylmorpholino)methyl)-6-(4-methoxybenzyl)-9-methylthieno[3,2-e][1,2,4]triazolo[1,5-c]pyrimidin-5(6H)-one] | >7
22 | CCN1CCN(Cc2sc3c(c2C)c2ncnn2c(=O)n3Cc2ccc(OC)cc2)CC1=O [Example 66, 8-((4-Ethyl-3-oxopiperazin-1-yl)methyl)-6-(4-methoxybenzyl)-9-methylthieno[3,2-e][1,2,4]triazolo[1,5-c]pyrimidin-5(6H)-one] | >7
23 | COc1ccc(Cn2c(=O)n3ncnc3c3cc(CN4CCC5(CC4)COC5)sc32)cc1 [Example 39, 8-(2-Oxa-7-azaspiro[3.5]nonan-7-ylmethyl)-6-(4-methoxybenzyl)thieno[3,2-e][1,2,4]triazolo[1,5-c]pyrimidin-5(6H)-one] | >7
24 | COc1ccc(Cn2c(=O)n3ncnc3c3c(C)c(CN4CCOCC4)sc32)cc1 [Example 44, 6-(4-Methoxybenzyl)-9-methyl-8-(morpholinomethyl)thieno[3,2-e][1,2,4]triazolo[1,5-c]pyrimidin-5(6H)-one] | >7
25 | COc1ccc(Cn2c(=O)n3ncnc3c3c(C)c(CN(C)CC4CCCO4)sc32)cc1 (centres unmarked) [Example 54, 6-(4-Methoxybenzyl)-9-methyl-8-((methyl((tetrahydrofuran-2-yl)methyl)amino)methyl)thieno[3,2-e][1,2,4]triazolo[1,5-c]pyrimidin-5(6H)-one] | >7
26 | COc1ccc(Cn2c(=O)n3ncnc3c3c4c(sc32)CN(C(=O)C2CCOC2)CC4)cc1 (centres unmarked) [Example 170, 6-(4-Methoxybenzyl)-9-(tetrahydrofuran-3-carbonyl)-8,9,10,11-tetrahydropyrido[4′,3′:4,5]thieno[3,2-e][1,2,4]triazolo[1,5-c]pyrimidin-5(6H)-one] | >7
27 | COc1ccc(Cn2c(=O)n3ncnc3c3c(C)c(CN4CCN(S(C)(=O)=O)CC4)sc32)cc1 [Example 63, 6-(4-Methoxybenzyl)-9-methyl-8-((4-(methylsulfonyl)piperazin-1-yl)methyl)thieno[3,2-e][1,2,4]triazolo[1,5-c]pyrimidin-5(6H)-one] | >7
28 | COc1ccc(Cn2c(=O)n3ncnc3c3cc(CN4CCOC(C)(C)C4)sc32)cc1 [Example 36] | >7
29 | COc1ccc(Cn2c(=O)n3ncnc3c3c4c(sc32)CN(CCCS(C)(=O)=O)CC4)cc1 [Example 118, 6-(4-Methoxybenzyl)-9-(3-(methylsulfonyl)propyl)-8,9,10,11-tetrahydropyrido[4′,3′:4,5]thieno[3,2-e][1,2,4]triazolo[1,5-c]pyrimidin-5 (6H)-one] | >7
30 | COc1ccc(Cn2c(=O)n3ncnc3c3c4c(sc32)CN(Cc2ccccn2)CC4)c(F)c1 [Example 139, 6-(2-Fluoro-4-methoxybenzyl)-9-(pyridin-2-ylmethyl)-8,9,10,11-tetrahydropyrido[4′,3′:4,5]thieno[3,2-e][1,2,4]triazolo[1,5-c]pyrimidin-5 (6H)-one] | >7
31 | COc1ccc(Cn2c(=O)n3ncnc3c3c(C)c(CN4CCN(C)C(C)C4)sc32)cc1 (centres unmarked) [Example 73, 8-((3,4-Dimethylpiperazin-1-yl)methyl)-6-(4-methoxybenzyl)-9-methylthieno[3,2-e][1,2,4]triazolo[1,5-c]pyrimidin-5(6H)-one] | >7
32 | COc1ccc(Cn2c(=O)n3ncnc3c3c4c(sc32)CN(CC2CCOCC2)CC4(F)F)c(F)c1 [Example 156, 11,11-Difluoro-6-(2-fluoro-4-methoxybenzyl)-9-((tetrahydro-2H-pyran-4-yl)methyl)-8,9,10,11-tetrahydropyrido[4′,3′:4,5]thieno[3,2-e][1,2,4]triazolo[1,5-c]pyrimidin-5(6H)-one] | >7
33 | COc1ccc(Cn2c(=O)n3ncnc3c3c4c(sc32)CN(Cc2nccn2C)CC4)c(F)c1 [Example 138, 6-(2-Fluoro-4-methoxybenzyl)-9-((1-methyl-1H-imidazol-2-yl)methyl)-8,9,10,11-tetrahydropyrido[4′,3′:4,5]thieno[3,2-e][1,2,4]triazolo[1,5-c]pyrimidin-5(6H)-one] | >7
34 | O=C(c1cnccn1)N1CCc2c(sc3c2c2ncnn2c(=O)n3Cc2ccc(Cl)cc2)C1 [Example 157, 6-(4-Chlorobenzyl)-9-(pyrazine-2-carbonyl)-8,9,10,11-tetrahydropyrido[4′,3′:4,5]thieno[3,2-e][1,2,4]triazolo[1,5-c]pyrimidin-5(6H)-one] | >7
35 | COc1ccc(Cn2c(=O)n3nccc3c3cc(CN4C[C@@H](C)O[C@@H](C)C4)sc32)cc1 [Example 104, 2-(((2S,6R)-2,6-Dimethylmorpholino)methyl)-4-(4-methoxybenzyl)pyrazolo[1,5-c]thieno[3,2-e]pyrimidin-5(4H)-one] | >7
